According to patent publication US5141930A, “Fused thiophene compounds and uses thereof” (Yoshitomi Pharmaceutical Industries, Ltd., priority 1990, dated 1992):
Counter-ions that a name gives are not always drawn.

Tests used:
[1] = target: T1, serotonin 1A (5-HT1A) receptor (Rattus norvegicus, UniProt P19327); assay: Affinity for serotonin 1A (5-HT1A) receptor, 3H-8-OH-DPAT binding test; conditions: rat hippocampus, 0.2 nM 3H-8-OH-DPAT, pH 7.4, 37° C., 10 min
T1 sequence (P19327 1-422): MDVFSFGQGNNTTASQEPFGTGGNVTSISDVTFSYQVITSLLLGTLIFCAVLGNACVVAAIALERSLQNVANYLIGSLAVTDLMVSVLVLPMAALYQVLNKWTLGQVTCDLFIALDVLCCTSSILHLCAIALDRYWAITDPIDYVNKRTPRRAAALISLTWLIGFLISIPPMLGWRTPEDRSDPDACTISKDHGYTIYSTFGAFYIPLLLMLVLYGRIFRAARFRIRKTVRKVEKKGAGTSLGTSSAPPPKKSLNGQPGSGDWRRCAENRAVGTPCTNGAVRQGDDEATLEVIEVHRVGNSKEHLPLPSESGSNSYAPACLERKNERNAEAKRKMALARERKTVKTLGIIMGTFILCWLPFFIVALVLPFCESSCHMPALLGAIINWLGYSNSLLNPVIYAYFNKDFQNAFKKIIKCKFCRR
Description: Affinity for serotonin 1A (5-HT1A) receptor [^3 H-8-Hydroxy-2-dipropylaminotetralin (^3 H-8-OH-DPAT) binding test]
Preparation of crude synaptosome fraction and binding assay were conducted in accordance with the method reported in Journal of Neurochemistry, vol. 44, page 1685, 1985 by Hall et al. Freezed hippocampus dissected out from rats were homogenized in 40 volumes of ice-cold 50 mM Tris-HCl buffer (pH 7.4) and the suspension was centrifuged at 500×g for 10 minutes at 0° C. The supernatant was centrifuged at 40,000×g for 20 minutes at 0° C. and the resulting pellet was homogenized in 40 volumes of the above buffer and incubated at 37° C. for 10 minutes. After completion of reaction, the suspension was centrifuged at 40,000×g for 20 minutes at 0° C. The resulting pellet was washed twice by resuspension in 40 volumes of the above buffer and centrifugation, and finally suspended in 60 volumes of ice-cold 50 mM Tris-HCl buffer (pH 7.4) containing 1 mM manganese chloride for use in the next assay.
To the aliquots (900 μl) of synaptosome membranes solution were added 50 μl of tritiated 8-OH-DPAT solution at the terminal concentration of 0.2 nM and 50 μl of test compound solution or 50 μl of its medium, and incubated at 37° C. for 10 minutes. Then, to the mixture was added 5 ml of ice-cold 50 mM Tris-HCl buffer (pH 7.4), rapidly vacuum-filtered through Whatman GF/B filters and washed twice with 5 ml of the same buffer. The radioactivity of the residue remaining on the filters was measured by liquid scintillation counter. Nonspecific binding was determined under the presence of 10^-5 M serotonin (5-HT). 50% Inhibition concentration (IC50) of the test compound was graphically determined and the inhibition constant (Ki value) was calculated.

[2] = target: T2, serotonin 2 (5-HT2) receptor (Rattus norvegicus, UniProt P14842); assay: Affinity for serotonin 2 (5-HT2) receptor, 3H-Ketanserin binding test; conditions: rat cerebral cortex, 0.2 nM 3H-Ketanserin, pH 7.7, 37° C., 20 min
T2 construct: Freezed cerebral cortex dissected out from rats were homogenized; from tissue; host or cells: rat cerebral cortex, crude synaptosome fraction
T2 sequence (P14842 whole entry): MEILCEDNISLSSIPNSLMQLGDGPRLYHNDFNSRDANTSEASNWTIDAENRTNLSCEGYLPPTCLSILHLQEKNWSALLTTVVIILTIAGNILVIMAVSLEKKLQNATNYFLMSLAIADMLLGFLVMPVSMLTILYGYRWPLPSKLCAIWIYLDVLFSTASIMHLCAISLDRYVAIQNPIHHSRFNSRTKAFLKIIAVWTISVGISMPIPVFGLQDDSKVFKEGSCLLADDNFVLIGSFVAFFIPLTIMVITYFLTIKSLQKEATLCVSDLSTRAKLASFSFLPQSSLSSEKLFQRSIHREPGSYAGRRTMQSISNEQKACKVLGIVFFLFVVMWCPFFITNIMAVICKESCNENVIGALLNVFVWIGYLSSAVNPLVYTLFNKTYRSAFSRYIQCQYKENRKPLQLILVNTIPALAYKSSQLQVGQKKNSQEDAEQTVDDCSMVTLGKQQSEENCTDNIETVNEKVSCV
Description: Affinity for serotonin 2 (5-HT2) receptor (^3 H-Ketanserin binding test)
Preparation of crude synaptosome fraction and binding assay were conducted according to the method reported in Molecular Pharmacology, vol. 21, page 301, 1981 by Leysen et al.
Freezed cerebral cortex dissected out from rats were homogenized in 30 volumes of ice-cold 0.32 M sucrose solution and the suspension was centrifuged at 1000×g for 10 minutes at 10° C. The supernatant was centrifuged at 40,000×g for 20 minutes at 0° C. and the resulting pellet was homogenized in 30 volumes of ice-cold 50 mM Tris-HCl buffer (pH 7.7), and incubated at 37° C. for 10 minutes. The suspension was centrifuged at 40,000×g for 20 minutes at 0° C. again. The resulting pellet was homogenized in 100 volumes of the above buffer and provided as synaptosome membranes solution for the next assay.
To the aliquots (900 μl) of synaptosome membranes solution were added 50 μl of ^3 H-Ketanserin solution at the terminal concentration of 0.2 nM and 50 μl of test compound solution or 50 μl of its medium, and incubated at 37° C. for 20 minutes. After completion of the reaction, the mixture was rapidly vacuum-filtered through Whatman GF/B filters. The filters were washed three times with 5 ml of the above buffer, and then the radioactivity of the residue remaining on the filters was measured by liquid scintillation counter. Nonspecific binding was determined under the presence of 10 μM of mianserin. 50% Inhibition concentration (IC50) of the test compound was graphically determined and the inhibition constant (Ki value) was calculated.

dopamine 2 (D2) receptor = dopamine 2 (D2) receptor (Rattus norvegicus, UniProt P61169); assay: Affinity for dopamine 2 (D2) receptor, 3H-Spiperone binding test; conditions: rat corpus striatum, 0.2 nM 3H-Spiperone, pH 7.1, 37° C., 20 min
Sequence of dopamine 2 (D2) receptor (P61169 whole entry): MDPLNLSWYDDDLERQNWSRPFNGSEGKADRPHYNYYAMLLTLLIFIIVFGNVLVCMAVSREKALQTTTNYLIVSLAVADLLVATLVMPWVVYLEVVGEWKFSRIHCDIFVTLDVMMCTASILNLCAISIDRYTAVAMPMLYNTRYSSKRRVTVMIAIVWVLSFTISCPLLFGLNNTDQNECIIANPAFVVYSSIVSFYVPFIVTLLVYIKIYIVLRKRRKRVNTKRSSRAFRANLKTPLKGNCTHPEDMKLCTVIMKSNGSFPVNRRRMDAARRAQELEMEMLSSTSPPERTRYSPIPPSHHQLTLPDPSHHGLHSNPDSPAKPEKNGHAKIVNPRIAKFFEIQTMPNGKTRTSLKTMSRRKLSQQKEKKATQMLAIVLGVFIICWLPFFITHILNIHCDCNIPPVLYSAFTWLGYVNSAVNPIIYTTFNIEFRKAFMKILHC

Wistar rats = assay: Anxiolytic effect (Vogel type conflict test); format: in vivo; conditions: Rattus norvegicus, po; orally 1 hour before test; lowest dose significantly different from 0.5% MC control, P<0.05; read-out: Anxiolytic effect MED (minimum effective dose)
Description: Anxiolytic effect (Vogel type conflict test) The test was conducted according to the method of Vogel et al. Wistar rats deprived of water for 72 hours before the test were used. The rats were placed in a plexiglas conflict test box (light compartment: 38×38×20 cm, dark compartment: 10×10×20 cm). A water bottle with a stainless steel spout was fitted to the middle of the outside, so that the spout extended 3 cm into the box at a height of 10 cm above the grid floor. A drinkometer circuit (Ohara Inc., Nihon Koden) was connected with the spout and the number of licks were counted. The rat was placed into the apparatus where an electric shock (0.2-0.3 mA, 0.3 sec) was given once every 20th lick. After the rat received first electric shock, the number of shocks were recorded during the subsequent 3 min. test period. The test compounds were administered orally 1 hour before the test. The minimum effective dose (MED) was defined as the lowest dose producing a statistically significant difference between 0.5% MC-treated (control) and test drug treated punished responses (One-way ANOVA test; P<0.05).

serotonin 1A receptor [3] = conditions: background statement; cited from earlier work
[4] = tested on: serotonin 1A receptor of medulla oblongata; conditions: through serotonin 1A receptor of medulla oblongata; cited from earlier work
benzodiazepine receptor = conditions: background statement; cited from earlier work
serotonin 1A receptor [5] = conditions: by an interaction with serotonin 1A receptor; cited from earlier work

Ki [1]	Ki [2]	Ki (dopamine 2 (D2) receptor)	SMILES	minimal effective dose (Wistar rats)	affinity for serotonin 1A receptor (serotonin 1A receptor [3])	effect on blood pressure [4]	binding to benzodiazepine receptor (benzodiazepine receptor)	antianxietic action (serotonin 1A receptor [5])
1.4 nM	1100 nM	150 nM	CCc1cc2c(s1)SCCN(CCCCN1CCN(c3ncccn3)CC1)C2=O [Example 121, 7-ethyl-2,3-dihydro-4-[4-(4-(2-pyrimidinyl)-1-piperazinyl)thieno[3,2-f]-1,4-thiazepin-5(4H)-one hydrochloride 3/2 hydrate]					
5.2 nM	1800 nM	1800 nM	O=C1c2ccsc2SCCN1CCCCN1CCN(c2ncccn2)CC1 [Example 103, 2,3-dihydro-4-[4-(4-(2-pyrimidinyl)-1-piperazinyl)butyl]thieno[3,2-f]-1,4-thiazepin-5( (4H)-one fumarate]					
4.1 nM	1800 nM	270 nM	CC(=O)c1cc2c(s1)SCCN(CCCCN1CCN(c3ncccn3)CC1)C2=O [Example 117, 7-acetyl-2,3-dihydro-4-[4-(4-(2-pyrimidinyl)-1-piperazinyl)butyl]thieno[3,2-f]-1,4-thiazepin-5(4H)-one]	5 mg/kg				
1.5 nM	990 nM	120 nM	O=C1c2cc(Br)sc2SCCN1CCCCN1CCN(c2ncccn2)CC1 [Example 107, 7-bromo-2,3-dihydro-4-[4-(4-(2-pyrimidinyl)-1-piperazinyl)butyl]thieno[3,2-f]-1,4-thiazepin-5(4H)-one fumarate 1/2 hydrate]					
0.15 nM	1200 nM	6.2 nM	Cc1cc2c(s1)CCCN(CCCCNCC1COc3ccccc3O1)C2=O.Cl (centres unmarked) [Example 163, 5-[4-((1,4-Benzodioxan-2-yl)methylamino)butyl]-2-methyl-5,6,7,8-tetrahydro-4H-thieno[3,2-c]azepin-4-one hydrochloride]	2.5 mg/kg				

Further lines, the molecule ahead of its results:

SMILES	Ki [1]	Ki [2]	Ki (dopamine 2 (D2) receptor)	minimal effective dose (Wistar rats)	affinity for serotonin 1A receptor (serotonin 1A receptor [3])	effect on blood pressure [4]	binding to benzodiazepine receptor (benzodiazepine receptor)	antianxietic action (serotonin 1A receptor [5])
CC(O)c1cc2c(s1)CCCN(CCCCN1CCN(c3ncccn3)CC1)C2=O.O=C(O)/C=C\C(=O)O (centres unmarked) [Example 155, 2-(1-Hydroxyethyl)-5-[4-(4-(2-pyrimidinyl)-1-piperazinyl)butyl]-5,6,7,8-tetrahydro-4H-thieno[3,2-c]azepin-4-one maleate]	0.81 nM	2100 nM	170 nM	2.5 mg/kg				
CC(=O)c1cc2c(s1)CCCN(CCCCN1CCN(c3ncccn3)CC1)C2=O [13 (maleate)]	1.6 nM	1400 nM	190 nM	1 mg/kg				
CCc1cc2c(s1)CCCN(CCCCN1CCN(c3ncccn3)CC1)C2=O.O=C(O)/C=C/C(=O)O [Example 46, 2-ethyl-5-[4-(4-(2-pyrimidinyl)-1-piperazinyl)butyl]-5,6,7,8-tetrahydro-4H-thieno[3,2-c]azepin-4-one fumarate]	1.3 nM	990 nM	78 nM	≤ 1 mg/kg				
CCCN(CCC)C1CCc2cccc(O)c2C1 (centres unmarked) [8-hydroxy-2-dipropylaminotetralin]					high affinity	lowers blood pressure		
O=C1CC2(CCCC2)CC(=O)N1CCCCN1CCN(c2ncccn2)CC1 [buspirone]					high affinity		not to bind	exhibits antianxietic action
O=C1c2cc(Br)sc2CCCN1CCCCN1CCN(c2ncccn2)CC1 [Example 11, 2-Bromo-5-[4-(4-(2-pyrimidinyl)-1l-piperazinyl)butyl]-5,6,7,8-tetrahydro-4H-thieno[3,2-c]azepin-4-one fumarate]	0.89 nM	900 nM	100 nM					
Cc1cc2c(s1)CCCN(CCCCN1CCN(c3ncccn3)CC1)C2=O [15 (hydrochloride)]	2.1 nM	1500 nM	140 nM	2.5 mg/kg				
